Converted amounts (≈) assume the structure as drawn. Like-named read-outs stand apart in the source and are kept apart here.

This is an account of results in EP2296651B1, “5-HYDROXYMETHYL-OXAZOLIDIN-2-ONE DERIVATIVES FOR TREATING BACTERIAL INTESTINAL DISEASES” (Actelion Pharmaceuticals Ltd., priority 2008, dated 2009).

Assay [1] deals with C. difficile ATCC 43596. In words: Broth microdilution MIC, anaerobic. It is filed as cell-based, Clostridium difficile. The following applies: Clostridioides difficile, ATCC43596, 48h at 37°C, read-out: MIC regarding C. difficile ATCC 43596.
Assay [2] deals with C. difficile NC 13366. Kind of assay: Broth microdilution MIC, anaerobic. It is filed as cell-based, Clostridium difficile. The settings on record: Clostridioides difficile, NC13366, 48h at 37°C, quinolone-resistant hypervirulent strain, read-out: MIC regarding C. difficile NC 13366. Background: Broth dilution looks for growth in wells or tubes with falling amounts of substance.

The subject of assay [3] is C. perfringens DSM 756. Kind of assay: microbe, parasite or virus in culture. It is filed as cell-based. The following applies: Clostridium perfringens, DSM756, 48 h, read-out: MIC regarding C. perfringens DSM 756.
Assay [4] relates to C. difficile ATCC 9689. In words: Broth microdilution MIC, anaerobic. It is filed as cell-based, Clostridium difficile. The settings on record: Clostridioides difficile, ATCC9689, 48h at 37°C, read-out: MIC regarding C. difficile ATCC 9689.
Assay [5] concerns 209 diverse clinical isolates of C. difficile. Kind of assay: CLSI agar dilution MIC, clinical isolates. It is filed as cell-based, Clostridium difficile. The settings on record: Clostridioides difficile, 48 h.
For assay [6], the system named is S. aureus ATCC 29213. Kind of assay: Broth microdilution MIC, aerobic Gram-positive bacteria. The following applies: Staphylococcus aureus, ATCC29213, 48 h.
Assay [7] relates to S. aureus A-798 (MRSA). Described as above. The following applies: Staphylococcus aureus, 48 h.
Assay [8] has as its system S. aureus ATCC 43300 (MRSA). The description is as above. The settings on record: Staphylococcus aureus, 48 h.
The subject of assay [9] is S. aureus S1 (LZD-R). Described as above. The following applies: Staphylococcus aureus, 48 h.
Assay [10] relates to E. faecalis ATCC 29212. The assay is described as above. The settings on record: Enterococcus faecalis, ATCC29212, 48 h.
Assay [11] concerns E. faecalis H 4060. The description is as above. The settings on record: Enterococcus faecalis, H4060, 48 h.
Assay [12] has as its system E. faecalis H 6279. Described as above. The following applies: Enterococcus faecalis, H6279, 48 h.
The subject of assay [13] is E. faecalis H 6897. Described as above. The following applies: Enterococcus faecalis, H6897, 48 h.
Assay [14] has as its system E. faecalis H 7094. Described as above. The settings on record: Enterococcus faecalis, H7094, 48 h.
Assay [15] concerns E. faecalis H 7460. The assay is described as above. The settings on record: Enterococcus faecalis, H7460, 48 h.
In assay [16] the test system is E. faecium ATCC 19434. Described as above. The following applies: Enterococcus faecium, ATCC19434, 48 h.
The test system of assay [17] is E. faecium H 9070. Described as above. The following applies: Enterococcus faecium, H9070, 48 h.
The subject of assay [18] is E. faecium H 7969. The description is as above. The following applies: Enterococcus faecium, H7969, 48 h.
Assay [19] relates to E. faecium H 7966. The assay is described as above. The following applies: Enterococcus faecium, H7966, 48 h.
The subject of assay [20] is E. faecium H 7965. Described as above. The following applies: Enterococcus faecium, H7965, 48 h.
Assay [21] has as its system E. faecium H 7937. Described as above. The following applies: Enterococcus faecium, H7937, 48 h.
For assay [22], the system named is E. faecium A 962. The assay is described as above. The following applies: Enterococcus faecium, A962, 48 h.
In assay [23] the test system is E. faecium A 949. The description is as above. The following applies: Enterococcus faecium, A949, 48 h.
Assay [24] deals with E. faecium L1 (LZD-R). The description is as above. The settings on record: Enterococcus faecium, 48 h.
Assay [25] relates to C. difficile strain NC 13366. It is filed as cell-based.
In assay [26] the test system is C. difficile A-1050 (ATCC 43596). In words: Spore formation at sub-MIC concentrations. It is filed as cell-based. The settings on record: 0.5x the MIC; 4 days anaerobic incubation at 37°C.
For assay [27], the system named is C. difficile strain NC 13366. Kind of assay: microbe, parasite or virus in culture. It is filed as cell-based.

Consider `O=C(O)c1cn(C2CC2)c2nc(N3CCC(O)(COc4ccc(N5C[C@H](CO)OC5=O)cc4F)CC3)c(F)cc2c1=O` [Example 2, 1-cyclopropyl-6-fluoro-7-{4-[2-fluoro-4-((R)-5-hydroxymethyl-2-oxo-oxazolidin-3-yl)phenoxymethyl]-4-hydroxy-piperidin-1-yl}-4-oxo-1,4-dihydro-[1,8]naphthyridine-3-carboxylic acid], for which the MIC is 0.06 µg/mL (≈ 0.102 µM) in [1], 0.03 µg/mL (≈ 0.0511 µM) in assay [2] and not above 0.03 µg/mL in [3].

As a reminder, the MIC90 is the lowest concentration that inhibits either 90% of growth or 90% of the strains tested, depending on the study. For `CC(=O)NC[C@H]1CN(c2ccc(N3CCOCC3)c(F)c2)C(=O)O1` [Linezolid], the MIC stood at 8 µg/mL (≈ 23.7 µM) in assay [1]; 2 µg/mL (≈ 5.93 µM) in assay [4]; 1 µg/mL (≈ 2.96 µM) in [2]; 4 µg/mL (≈ 11.9 µM) in assay [3]; 2 µg/mL (≈ 5.93 µM) in [6]; 2 µg/mL (≈ 5.93 µM) in [7]. For the same compound, the MIC in [8] was 2 µg/mL (≈ 5.93 µM); in assay [9], more than 32 µg/mL; in [10] it was 2 µg/mL (≈ 5.93 µM); in assay [11] it was 2 µg/mL (≈ 5.93 µM); in assay [12] it was 2 µg/mL (≈ 5.93 µM); in [13], 4 µg/mL (≈ 11.9 µM). Further, the MIC in [14] was found to be 4 µg/mL (≈ 11.9 µM); in [15], 16 µg/mL (≈ 47.4 µM); in assay [16], 2 µg/mL (≈ 5.93 µM); in assay [17], 2 µg/mL (≈ 5.93 µM); in [18] it was 4 µg/mL (≈ 11.9 µM); in assay [19], 1 µg/mL (≈ 2.96 µM). The MIC in assay [20] is 2 µg/mL (≈ 5.93 µM); in assay [21], 1 µg/mL (≈ 2.96 µM); in assay [22], 4 µg/mL (≈ 11.9 µM); in assay [23] it was 2 µg/mL (≈ 5.93 µM); in assay [24] it was more than 32 µg/mL. In assay [5] (209 clinical isolates of C. difficile, read-out: MIC90), the MIC90 is 8 µg/mL (≈ 23.7 µM).

Take `Cc1ncc([N+](=O)[O-])n1CCO` [metronidazole]: the “de novo toxin A production” value in assay [25] (1 and 8 µg/ml, supernatants at day 5, high density stationary phase cultures) is “did not inhibit toxin A production under these conditions or did so only weakly”. The “spores of total cell count” value in assay [26] is more than 90%.

In turn, `CN[C@H](CC(C)C)C(=O)N[C@H]1C(=O)N[C@@H](CC(N)=O)C(=O)N[C@H]2C(=O)N[C@H]3C(=O)N[C@H](C(=O)N[C@H](C(=O)O)c4cc(O)cc(O)c4-c4cc3ccc4O)[C@H](O)c3ccc(c(Cl)c3)Oc3cc2cc(c3O[C@@H]2O[C@H](CO)[C@@H](O)[C@H](O)[C@H]2O[C@H]2C[C@](C)(N)[C@H](O)[C@H](C)O2)Oc2ccc(cc2Cl)[C@H]1O` [vancomycin] yielded an MIC90 in assay [5] of 2 µg/mL (≈ 1.38 µM). The “de novo toxin A production” value in [25] is given as “did not inhibit toxin A production under these conditions or did so only weakly”. Moreover, in assay [27], the “toxin B activities of the supernatants, reduction compared to the untreated control” value is on record as “not reduced”. For the same compound, in assay [27] (Clostridioides difficile, NC13366, CHO, 120 h, read-out: toxin B activities of the supernatants, reduction compared to the untreated control), the inhibition at 8 µg/mL stood at 30%. Moreover, in assay [26], the “spores of total cell count” value is more than 90%. The MIC in assay [6] is 1 µg/mL (≈ 0.69 µM); in assay [7], 1 µg/mL (≈ 0.69 µM); in [8], 1 µg/mL (≈ 0.69 µM); in [9] it was 1 µg/mL (≈ 0.69 µM); in assay [10], 1 µg/mL (≈ 0.69 µM); in assay [11], more than 32 µg/mL. In addition, the MIC was more than 32 µg/mL in assay [12]; more than 32 µg/mL in [13]; more than 32 µg/mL in [14]; more than 32 µg/mL in [15]; 1 µg/mL (≈ 0.69 µM) in assay [16]; more than 32 µg/mL in assay [17]. The MIC in assay [18], in [19], in [20], in assay [21], in assay [22] and in assay [23] was more than 32 µg/mL each time. Besides, the MIC in [24] came out at 0.5 µg/mL (≈ 0.345 µM).
